Test results as given in EP4520333A1, “SYK INHIBITORS FOR USE IN THE TREATMENT OF IMMUNE CHECKPOINT INHIBITION INDUCED ADVERSE EVENTS” (Albert-Ludwigs-Universität Freiburg, priority 2023, dated 2025).

Columns and labels:
B-cell lymphomas = conditions: in vitro; cited from earlier work
mice [1] = experiment: Novel object recognition test; type: in vivo
Description: (§1) The invention is further described by the following figures. These are not intended to limit the scope of the invention but represent preferred embodiments of aspects of the invention provided for greater illustration of the invention described herein. • Figure 1: Microglia show signs of activation upon anti-PD-1 treatment in the absence of tumor. (A-C) Histology of brain samples immunostained for Iba-1^+ cells from the cortex of mice treated with anti-PD-1 or isotype control on day 22 after treatment. (A) Representative images from each group are shown. Scale bars, 50µm. The scatter plots show the number of Iba-1^+ cells (per mm^2) in cortex (B) and hippocampus (C). The results (mean ± s.e.m.) were combined. The experiment was performed three times. The P-values were calculated using the unpaired student's t-test. (D) Representative images showing Imaris (Bitplane)-based 3D-reconstruction of Iba-1^+ microglia from the cortex of mice treated with anti-PD-1 or isotype control as indicated. Scale bar: 10µm. (E-H) Scatter plots showing Imaris-based automated quantification of microglial morphology from microglia the cortex of mice treated with anti-PD-1 or isotype control on day 22 after treatment. […] The P-values were calculated using the unpaired student's t-test. • Figure 2: Anti-PD-1 treatment causes neurocognitive deficits and increased CSF-1R and MHC-II expression on microglia. (A-B) Representative immunofluorescence images and scatter plot depicting the quantification of the ratio of extravascular versus intravascular FITC-dextran indicative of BBB leakage via extravasation of FITC-dextran in the cortex of either untreated, isotype-treated, or anti-PD-1-treated mice. […] (C-D) The scatter plot (C) and representative histogram (D) show the quantification (fold change of MFI) of CSF-1R (CD115) on microglia (CD45^lo CD11b^+) isolated from the CNS of mice treated with anti-PD-1 or isotype control on day 22. […] The P-values were calculated using the student's t-test (B, C, E, K-M) and paired samples Wilcoxon test (G, I). […] The P-values were calculated using the unpaired student's t-test. […]

mice [2] = experiment: Elevated plus maze test; type: in vivo; conditions: melanoma bearing mice, anti-PD-1 plus Syk inhibitor vs anti-PD-1 plus vehicle (Fig. 7L day 17; Fig. 33A)
Description: (§2) The invention is further described by the following figures. These are not intended to limit the scope of the invention but represent preferred embodiments of aspects of the invention provided for greater illustration of the invention described herein. • Figure 1: Microglia show signs of activation upon anti-PD-1 treatment in the absence of tumor. (A-C) Histology of brain samples immunostained for Iba-1^+ cells from the cortex of mice treated with anti-PD-1 or isotype control on day 22 after treatment. (A) Representative images from each group are shown. Scale bars, 50µm. The scatter plots show the number of Iba-1^+ cells (per mm^2) in cortex (B) and hippocampus (C). The results (mean ± s.e.m.) were combined. […] The P-values were calculated using the unpaired student's t-test. […] (E-H) Scatter plots showing Imaris-based automated quantification of microglial morphology from microglia the cortex of mice treated with anti-PD-1 or isotype control on day 22 after treatment. […] The P-values were calculated using the unpaired student's t-test. • Figure 2: Anti-PD-1 treatment causes neurocognitive deficits and increased CSF-1R and MHC-II expression on microglia. […] (C-D) The scatter plot (C) and representative histogram (D) show the quantification (fold change of MFI) of CSF-1R (CD115) on microglia (CD45^lo CD11b^+) isolated from the CNS of mice treated with anti-PD-1 or isotype control on day 22. […]

mice [3] = experiment: Grip strength test; type: in vivo; conditions: melanoma bearing mice
Description: as §2

[4] = system: cells isolated from BM and spleen; experiment: Flow cytometry of peripheral immune cells from BM and spleen of melanoma-bearing mice; type: in vivo
Description: as §1

[5] = system: microglia (CD45lo CD11b+); experiment: Flow cytometry of microglia / CD11b+ cells isolated from the CNS of mice; type: in vivo; conditions: melanoma bearing mice on CSF-1R inhibitor diet vs control diet (Fig. 6, Fig. 14)
Description: as §2

lymphoma cells = conditions: reference (45); cited from earlier work

In the case of `CCS(=O)(=O)N1CCN(c2ccc(Nc3ncc(C(N)=O)c(NC4CC4)n3)cc2)CC1` [Cerdulatinib], the “activity against B-cell lymphomas” value (B-cell lymphomas) is given as “in vitro activity”.

For `COc1cc(Nc2ncc(F)c(Nc3ccc4c(n3)N(COP(=O)(O)O)C(=O)C(C)(C)O4)n2)cc(OC)c1OC` [Fostamatinib], the “time spent exploring a novel object with respect to the total time (memory)” value (mice [1]; melanoma bearing mice, anti-PD-1 plus Syk inhibitor vs anti-PD-1 plus vehicle (Fig. 7K day 17; Fig. 33B)) was “reproducible”, the “entries into open arms (exploratory)” value (mice [2]) was “reproducible” and the “grip strength normalized to body weight” value (mice [3]; anti-PD-1 plus Syk inhibitor or vehicle (Fig. 7M day 17; Fig. 33C)) was “reproducible”. The “peripheral myeloid compartment (CD45+, F4/80+ cells in BM and spleen)” value ([4]; anti-PD-1/isotype and second Syk inhibitor/vehicle (Fig. 33D-G)) was “No changes” and the “CD3+ T cells in the BM and spleen” value ([4]; anti-PD-1/isotype and second Syk inhibitor/vehicle (Fig. 33H and I)) was “expansion”.

With `COc1ncc(F)cc1CNc1ccc(Cc2c[nH]c3ncc(C)cc23)c(F)n1` [PLX5622] the “CSF-1R positive cells (CD11b+ and CD11b+CD45lo cells in the CNS)” value [5] was “depletion”, the “neurocognitive function in novel object recognition test, anti-PD-1 treated mice” value (mice [1]; melanoma bearing mice treated with anti-PD-1 plus depleting agent or its control, day 23 (Fig. 6B, F, J, M, O)) was “improved” and the “neurocognitive function in novel object recognition test, isotype treated mice” value (mice [1]; melanoma bearing mice treated with isotype antibody plus depleting agent or its control, day 23 (Fig. 6A, E)) was “did not develop neurocognitive deficits”. For the same molecule, the “grip strength normalized to body weight” value (mice [3]; isotype or anti-PD-1 plus depleting agent or its control, day 23 (Fig. 6C, D, G, H)) was “intact” and the “frequencies of CD45, CD11b, Ly6C and CD11c populations in the BM and spleen” value ([4]; CSF-1R inhibitor diet day -7 to day 23) was “did not alter”.

In the case of `Cn1cc(-c2nc(N[C@@H]3CCCC[C@@H]3N)c(F)c3c2C(=O)NC3)cn1` [TAK-659], the “pro-survival, proliferative, chemoresistant, and activation effects promoted by the microenvironment” value (lymphoma cells) is given as “impair”.
